Assay results as given in patent US20240066137A1, “NOVEL PROTEIN CONJUGATE, AND USE THEREOF FOR PREVENTING OR TREATING NONALCOHOLIC STEATOHEPATITIS, OBESITY AND DIABETES” (ONEGENE BIOTECHNOLOGY INC., priority 2020, published 2024).
Like-named read-outs stand apart in the source and are kept apart here. Each block holds one substance with its values, some of them ahead of it.

Legend:
[1] = target: GLP-1R (GLP-1 acceptor) (Homo sapiens, UniProt P43220); assay: cAMP accumulation assay, GLP-1 acceptor overexpressing cells
Sequence of GLP-1R (GLP-1 acceptor) (P43220 24-463): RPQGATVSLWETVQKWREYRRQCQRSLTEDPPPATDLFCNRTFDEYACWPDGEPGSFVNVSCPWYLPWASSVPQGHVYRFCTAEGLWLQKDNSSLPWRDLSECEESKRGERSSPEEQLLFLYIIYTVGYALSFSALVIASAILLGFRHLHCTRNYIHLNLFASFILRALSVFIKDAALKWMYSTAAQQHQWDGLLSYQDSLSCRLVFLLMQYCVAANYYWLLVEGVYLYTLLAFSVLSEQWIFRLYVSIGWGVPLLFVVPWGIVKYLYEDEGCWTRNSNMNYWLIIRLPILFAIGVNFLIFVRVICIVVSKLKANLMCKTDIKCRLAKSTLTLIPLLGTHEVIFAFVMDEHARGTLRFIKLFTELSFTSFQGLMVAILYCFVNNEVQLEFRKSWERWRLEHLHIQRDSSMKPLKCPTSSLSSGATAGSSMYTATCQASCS

[2] = test system: C57BL/6J mice in which fatty liver was induced by feeding MCD; assay: In-vivo efficacy against non-alcoholic steatohepatitis (MCD diet mice); parameters: species or system mouse; ALT / Hepatic TGF-β / Hepatic Triglyceride: unit not given here; conditions: for ALT: dulaglutide 2 nmol/kg s.c. 1 time/2 days, 14 times; for Hepatic TGF-β: liver tissue ELISA; for Hepatic Triglyceride / Lobular inflammation score (Lobular inflammation) / NAS (NAFLD Activity Score) / Steatosis score (Steatosis): liver tissue
Source text: The MCD mouse model is the most typically used method for efficacy testing against non-alcoholic steatohepatitis, and it is known that the histological appearance of the induced liver tissue from week 2 to week 4 is histologically similar to that of human non-alcoholic steatohepatitis. There are many precedent cases in which a number of pharmaceutical companies and academia conducted tests with various substances.
Fatty liver was induced by feeding MCD to male C57BL/6J mice for 8 weeks, and then the mice were divided into 6 groups shown in Table 7 below, and drug administration was performed for 4 weeks. As a comparative substance, two currently commercially available drugs, liraglutide (Saxenda) and dulaglutide (Trulycity), were used. The administered composition was repeatedly administered subcutaneously using a disposable syringe according to each administration cycle. […] The normal control group was fed with MCS (Methionine and Choline Sufficient L-Amino Acid Diet).
During the 4-week administration period, general symptoms and behavior were observed, and body weight was measured once a week after the start of administration and on the day of tissue extraction. Blood collection and liver tissue extraction were performed on the day of the end of observation, and blood was subjected to a hematological-biochemical test, and the extracted liver tissue was subjected to a histopathological test.
Alanine aminotransferase (ALT), which is used as the most basic indicator of liver disease, was measured through a hematological-biochemical test, and the results are shown in Table 8 below and FIG. 21.
In addition, histopathological test was performed by observation through H&E and Masson's trichrome staining, and the results are shown in FIG. 23. In the case of non-alcoholic steatohepatitis, steatosis and inflammation in lobules occurs, and inflammatory cells can be identified by tissue staining.
In addition, based on the evaluation criteria shown in Table 10 below, steatosis score, lobular inflammation score, and NAS (NAFLD activity score) were evaluated.
In addition, triglyceride accumulation in the liver tissue was analyzed using the Triglyceride Assay Kit, and the results are shown in Table 15 below and FIG. 28.
The mice were divided into 4 groups shown in Table 16 below, and the experiment was conducted in the same manner as in Test Example 4 above. As a comparative substance, the currently commercially available dulaglutide (Trulycity) was used.

[3] = target: NF-κB activity by IL-1β; assay: NF-κB reporter gene luciferase assay; type: cell-based; conditions: IL-1β stimulated
Protocol: The cells were cultured to 70-80% full in a T-75 flask. The medium was removed and washed once with 5 mL of the pre-warmed PBS. PBS was removed, and 1 mL of TryPLE Express was added, and incubated for 5 minutes in an incubator at 37° C. and 5% CO2, and the cells were detached. It was mixed with 4 mL of assay medium (10% FBS, 1% antibiotic in DMEM), and the mixture was transferred to a 15 mL tube, centrifuged at 1,000 rpm for 3 minutes, and then again released in 5 mL of assay medium. The number of cells was counted, and the concentration was allowed to be 500,000 cells/mL. It was transferred to a reservoir, and 40 μL per well was dispensed into a white 96-well half-area cell culture plate using a multi-channel pipette (20,000 cells/well). Only 40 μL of assay medium was dispensed into the blank well. The cells were incubated in an incubator at 37° C. and 5% CO2 for 24 hours to allow to be attached.
5 μL of each of the reference (10×) and sample (10×) prepared by 4-fold serial dilution was dispensed in duplicate. Thereafter, 5 μL of 50 pM IL-1β (10×) was dispensed and incubated in an incubator at 5% CO2 for 4 hours. 50 μL of ONE-Glo reagent (Promega, Cat. No. E6120) was each dispensed and cultured at room temperature for 5 minutes, and then the luminescence was measured with a Synergy Neo2 instrument. At this time, before treatment with ONE-Glo reagent, the plate was removed from the incubator for 15 minutes and allowed to reach room temperature.
The Delta RLU (relative luminescence unit) (ΔRLU) was calculated as follows.
ΔRLU=RLUsample−RLUblank=Signal−background luminescence
The IC50 values were obtained as ΔRLU by each concentration using GraphPad Prism 8, as follows (curve-fitting of the log (antagonist) vs. normalized response−variable slope equation).
In order to test the ability of the native IL-1RA and the IL-1RA analogue to inhibit NF-κB activity by IL-1β at the cellular level (in vitro), the NF-κB reporter gene luciferase assay was performed in the same manner as in Test Example 3.

[4] = Test Example 4, dulaglutide 2 nmol/kg
[5] = Test Example 5, dulaglutide 2 nmol/kg

EC50 ([1]; Test Example 9 screening, Cell line: Stable): 0.00145 ± 0.00045 nM
EC50 ([1]; read-out: EC50 GLP-1R, 1, Test Example 1, run 1): 0.00123 nM
EC50 ([1]; read-out: EC50 GLP-1R, Mean, Test Example 1, mean of 2 runs): 0.00107 nM
Substance: Dulaglutide [reference compound]
ALT ([2]; Test Example 4, blood): 220.5
Hepatic TGF-β [2, 4]: 159.60
Hepatic Triglyceride [2, 4]: 40.78
Lobular inflammation score (Lobular inflammation) [2, 4]: 1.5
NAS (NAFLD Activity Score) [2, 4]: 3.4
Steatosis score (Steatosis) [2, 4]: 1.9
AST/ALT value ([2]; Test Example 5, blood, dulaglutide 2 nmol/kg): 0.76
ALT ([2]; Test Example 5, blood): 246.8
Hepatic TGF-β [2, 5]: 165.3
Hepatic Triglyceride [2, 5]: 36.08
Lobular inflammation score (Lobular inflammation) [2, 5]: 1.6
NAS (NAFLD Activity Score) [2, 5]: 3.4
Steatosis score (Steatosis) [2, 5]: 1.8

IC50 ([3]; Test Example 3, mean of 4 runs, read-out: IC50, Mean): 0.0475 nM
IC50 ([3]; Test Example 3, run 1, read-out: IC50, 1): 0.0399 nM
IC50 ([3]; Test Example 3, run 2, read-out: IC50, 2): 0.0515 nM
IC50 ([3]; Test Example 3, run 3, read-out: IC50, 3): 0.0466 nM
IC50 ([3]; Test Example 3, run 4, read-out: IC50, 4): 0.0519 nM
IC50 ([3]; Test Example 9 screening, read-out: IC50): 0.0686 ± 0.00771 nM
Substance: rhIL-1RA: native IL-1RA, SEQ ID NO: 27
